≈ marks a conversion by molar mass, not a printed value.
Key:
Bibionidae = conditions: chronic/long-term; duration: 17 days
Tagia sp. = conditions: acute; duration: 14 days; mortality
Apis mellifera = conditions: acute; duration: 48 hours; oral; unspecified; mortality
Canidae = conditions: chronic; duration: 1 years; oral; Dog Other; clinical chemistry
Hypoaspis aculeifer = conditions: chronic/long-term; duration: 14 days
Rattus norvegicus = conditions: oral
Oncorhynchus mykiss = conditions: acute; duration: 96 hours; mortality

In the case of `C=CCOC(Cn1ccnc1)c1ccc(Cl)cc1Cl` (stereo not drawn) [Imazalil], the NOEC (Bibionidae) is reported as 0.181 mg/L, the LC50 (Tagia sp.) is reported as 541 mg/kg and the LD50 (Apis mellifera) is reported as > 35.1 µg/piece. The NOAEL (Canidae) was 2.5 mg/kg-day, the NOEC (Hypoaspis aculeifer) was 107 mg/kg and the NOAEL (Oryctolagus sp.; developmental, development) was 5 mg/kg-day. It also gave an NOEL (Oryctolagus sp.; reproduction developmental, reproduction) of 20 mg/kg-day, an LD50 (Bird; acute, oral, unspecified, mortality) of 510 mg/kg-day and an NOEC (Bird; chronic/long-term) of 24 mg/kg-day. For the same compound, the LC50 (Bird; short-term, oral, feed, mortality) was > 516 mg/kg-day, the LD50 (Rattus norvegicus; acute, mortality) was 227 mg/kg-day and the NOAEL (Rattus norvegicus; chronic, duration: 6 months, clinical chemistry) was 5 mg/kg-day. For the same compound, the LC50 (Oncorhynchus mykiss) was 1.48 µg/mL (≈ 4.98 µM).
